Test results reported in ChEMBL document CHEMBL5465560, “Selectivity Literature for EUbOPEN Chemogenomic Library” (2024).
Each block holds one compound with its values, some of them ahead of it.

Assays:
[1] = target: Casein kinase I isoform delta (Homo sapiens, UniProt P48730); experiment: Selectivity interaction (Kinase panel (Invitrogen)) EUB0000639a CSNK1D; settings: at 200 nM
[2] = target: T1, Serine/threonine-protein kinase ULK1 (Homo sapiens) (UniProt O75385); experiment: Selectivity interaction (ActivX KiNativ screen (kinase selectivity in THP-1 cell lysates)) EUB0000639a ULK1; format: subcellular; settings: lysate, at 0.2 µM
T1 sequence (whole entry): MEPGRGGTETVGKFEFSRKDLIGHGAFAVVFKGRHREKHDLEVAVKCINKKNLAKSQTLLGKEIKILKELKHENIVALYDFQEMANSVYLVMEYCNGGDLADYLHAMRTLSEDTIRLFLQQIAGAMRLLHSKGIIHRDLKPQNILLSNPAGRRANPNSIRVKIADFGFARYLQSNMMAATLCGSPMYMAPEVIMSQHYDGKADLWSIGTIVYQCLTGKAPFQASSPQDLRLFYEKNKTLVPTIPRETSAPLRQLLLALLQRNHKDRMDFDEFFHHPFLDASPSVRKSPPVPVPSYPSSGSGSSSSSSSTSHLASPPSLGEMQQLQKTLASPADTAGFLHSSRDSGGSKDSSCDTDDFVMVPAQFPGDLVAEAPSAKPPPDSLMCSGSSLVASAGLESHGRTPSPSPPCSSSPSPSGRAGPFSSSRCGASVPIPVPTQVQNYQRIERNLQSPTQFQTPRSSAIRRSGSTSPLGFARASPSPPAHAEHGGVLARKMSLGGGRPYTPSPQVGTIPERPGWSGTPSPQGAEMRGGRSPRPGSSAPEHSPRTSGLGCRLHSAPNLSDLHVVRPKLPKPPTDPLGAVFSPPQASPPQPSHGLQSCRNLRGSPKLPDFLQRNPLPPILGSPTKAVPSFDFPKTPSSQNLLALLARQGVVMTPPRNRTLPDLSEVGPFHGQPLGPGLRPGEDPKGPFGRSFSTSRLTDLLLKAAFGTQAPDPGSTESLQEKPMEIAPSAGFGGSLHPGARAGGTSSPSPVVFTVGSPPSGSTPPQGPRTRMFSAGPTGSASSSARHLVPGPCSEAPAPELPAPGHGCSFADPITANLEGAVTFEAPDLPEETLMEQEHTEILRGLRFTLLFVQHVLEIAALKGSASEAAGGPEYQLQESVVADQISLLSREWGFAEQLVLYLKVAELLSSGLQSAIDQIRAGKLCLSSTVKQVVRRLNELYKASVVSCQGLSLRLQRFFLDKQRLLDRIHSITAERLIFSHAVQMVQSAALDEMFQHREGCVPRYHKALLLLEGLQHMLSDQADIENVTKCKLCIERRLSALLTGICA

[3] = target: Epidermal growth factor receptor (Homo sapiens, UniProt P00533); experiment: Selectivity interaction (Kinase panel (Invitrogen)) EUB0000639a EGFR; settings: at 200 nM
[4] = target: Sodium-dependent noradrenaline transporter (Homo sapiens, UniProt P23975); experiment: Selectivity interaction (Norepinephrine Transporter assay, human recombinant ) EUB0000877a SLC6A2
[5] = target: T2, Serine/threonine-protein kinase Nek2 (Homo sapiens) (UniProt P51955); settings: at 10 µM
T2 sequence (whole entry): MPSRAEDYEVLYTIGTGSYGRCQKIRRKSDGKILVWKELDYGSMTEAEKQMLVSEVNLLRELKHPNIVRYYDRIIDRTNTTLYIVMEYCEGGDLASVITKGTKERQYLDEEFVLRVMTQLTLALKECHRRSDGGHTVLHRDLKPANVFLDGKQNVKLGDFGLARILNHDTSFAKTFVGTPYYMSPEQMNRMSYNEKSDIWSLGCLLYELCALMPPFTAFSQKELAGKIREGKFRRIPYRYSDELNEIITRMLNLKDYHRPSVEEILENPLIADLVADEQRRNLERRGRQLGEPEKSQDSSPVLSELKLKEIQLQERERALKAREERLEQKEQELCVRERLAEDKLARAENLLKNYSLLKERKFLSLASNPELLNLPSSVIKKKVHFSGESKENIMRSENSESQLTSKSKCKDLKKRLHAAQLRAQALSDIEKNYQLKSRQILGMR

[6] = target: Vascular endothelial growth factor receptor 2 (Homo sapiens, UniProt P35968); experiment: Selectivity interaction (KinomeScan (DiscoverX)) EUB0000595a KDR; settings: at 10 µM
[7] = target: Epithelial discoidin domain-containing receptor 1 (Homo sapiens) (UniProt Q08345); experiment: Selectivity interaction (KinomeScan (DiscoverX)) EUB0000607a DDR1; settings: at 10 µM
[8] = target: Serine/threonine-protein kinase PLK1 (Homo sapiens, UniProt P53350); experiment: Selectivity interaction (KinomeScan (DiscoverX)) EUB0000666a PLK1; settings: at 10 µM
Serine/threonine-protein kinase PLK1, sequence (P53350 whole entry): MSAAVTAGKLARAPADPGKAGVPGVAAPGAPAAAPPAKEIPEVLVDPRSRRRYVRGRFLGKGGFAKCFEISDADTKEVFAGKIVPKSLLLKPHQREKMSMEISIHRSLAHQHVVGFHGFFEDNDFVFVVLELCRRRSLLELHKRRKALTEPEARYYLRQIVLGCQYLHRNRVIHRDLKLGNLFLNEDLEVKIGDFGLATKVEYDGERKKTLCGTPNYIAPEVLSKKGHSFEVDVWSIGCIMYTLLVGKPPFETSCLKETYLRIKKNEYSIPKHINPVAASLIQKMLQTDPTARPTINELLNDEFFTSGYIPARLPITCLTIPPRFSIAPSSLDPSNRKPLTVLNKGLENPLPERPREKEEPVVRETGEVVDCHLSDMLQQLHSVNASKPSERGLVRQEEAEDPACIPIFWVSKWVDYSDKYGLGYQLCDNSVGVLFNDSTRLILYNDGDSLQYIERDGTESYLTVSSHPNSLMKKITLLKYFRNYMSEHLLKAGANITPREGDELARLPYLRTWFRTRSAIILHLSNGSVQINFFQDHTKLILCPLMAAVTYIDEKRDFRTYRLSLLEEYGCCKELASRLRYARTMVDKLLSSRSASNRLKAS

Vascular endothelial growth factor receptor 2, sequence (P35968 whole entry, the tested form may be a part): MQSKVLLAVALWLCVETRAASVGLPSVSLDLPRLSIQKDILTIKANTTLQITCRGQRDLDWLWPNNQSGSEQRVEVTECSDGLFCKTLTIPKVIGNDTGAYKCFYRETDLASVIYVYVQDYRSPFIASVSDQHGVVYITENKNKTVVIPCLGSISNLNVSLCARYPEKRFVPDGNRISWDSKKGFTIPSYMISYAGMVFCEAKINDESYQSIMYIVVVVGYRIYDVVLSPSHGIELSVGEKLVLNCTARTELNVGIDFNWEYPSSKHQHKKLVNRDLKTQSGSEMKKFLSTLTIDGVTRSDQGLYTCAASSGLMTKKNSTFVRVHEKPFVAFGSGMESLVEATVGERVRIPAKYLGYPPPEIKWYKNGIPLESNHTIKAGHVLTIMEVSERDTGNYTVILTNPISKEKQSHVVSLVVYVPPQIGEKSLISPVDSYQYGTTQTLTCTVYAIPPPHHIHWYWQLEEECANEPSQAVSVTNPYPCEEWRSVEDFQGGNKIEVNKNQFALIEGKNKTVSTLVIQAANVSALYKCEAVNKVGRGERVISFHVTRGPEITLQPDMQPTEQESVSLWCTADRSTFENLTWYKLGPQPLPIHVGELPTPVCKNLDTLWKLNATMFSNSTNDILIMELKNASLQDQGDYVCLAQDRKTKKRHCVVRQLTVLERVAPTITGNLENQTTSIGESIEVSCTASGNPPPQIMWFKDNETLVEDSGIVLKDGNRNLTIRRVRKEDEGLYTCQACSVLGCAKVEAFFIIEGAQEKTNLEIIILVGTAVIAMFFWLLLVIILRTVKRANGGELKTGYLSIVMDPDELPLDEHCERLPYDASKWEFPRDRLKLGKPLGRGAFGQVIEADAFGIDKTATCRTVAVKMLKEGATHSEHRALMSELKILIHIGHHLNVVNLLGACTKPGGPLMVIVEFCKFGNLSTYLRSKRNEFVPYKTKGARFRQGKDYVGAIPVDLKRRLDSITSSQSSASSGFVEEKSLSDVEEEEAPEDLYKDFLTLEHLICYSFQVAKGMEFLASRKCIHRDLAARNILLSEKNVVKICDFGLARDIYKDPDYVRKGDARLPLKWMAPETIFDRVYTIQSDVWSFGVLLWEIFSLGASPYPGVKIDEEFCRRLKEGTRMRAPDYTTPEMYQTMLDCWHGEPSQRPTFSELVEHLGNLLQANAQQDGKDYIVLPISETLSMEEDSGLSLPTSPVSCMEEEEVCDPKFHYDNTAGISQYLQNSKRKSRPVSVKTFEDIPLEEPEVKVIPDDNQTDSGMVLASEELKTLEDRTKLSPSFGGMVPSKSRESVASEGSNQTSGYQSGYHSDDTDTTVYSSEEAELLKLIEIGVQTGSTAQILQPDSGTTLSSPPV
Epithelial discoidin domain-containing receptor 1 (Homo sapiens), sequence (Q08345 whole entry, the tested form may be a part): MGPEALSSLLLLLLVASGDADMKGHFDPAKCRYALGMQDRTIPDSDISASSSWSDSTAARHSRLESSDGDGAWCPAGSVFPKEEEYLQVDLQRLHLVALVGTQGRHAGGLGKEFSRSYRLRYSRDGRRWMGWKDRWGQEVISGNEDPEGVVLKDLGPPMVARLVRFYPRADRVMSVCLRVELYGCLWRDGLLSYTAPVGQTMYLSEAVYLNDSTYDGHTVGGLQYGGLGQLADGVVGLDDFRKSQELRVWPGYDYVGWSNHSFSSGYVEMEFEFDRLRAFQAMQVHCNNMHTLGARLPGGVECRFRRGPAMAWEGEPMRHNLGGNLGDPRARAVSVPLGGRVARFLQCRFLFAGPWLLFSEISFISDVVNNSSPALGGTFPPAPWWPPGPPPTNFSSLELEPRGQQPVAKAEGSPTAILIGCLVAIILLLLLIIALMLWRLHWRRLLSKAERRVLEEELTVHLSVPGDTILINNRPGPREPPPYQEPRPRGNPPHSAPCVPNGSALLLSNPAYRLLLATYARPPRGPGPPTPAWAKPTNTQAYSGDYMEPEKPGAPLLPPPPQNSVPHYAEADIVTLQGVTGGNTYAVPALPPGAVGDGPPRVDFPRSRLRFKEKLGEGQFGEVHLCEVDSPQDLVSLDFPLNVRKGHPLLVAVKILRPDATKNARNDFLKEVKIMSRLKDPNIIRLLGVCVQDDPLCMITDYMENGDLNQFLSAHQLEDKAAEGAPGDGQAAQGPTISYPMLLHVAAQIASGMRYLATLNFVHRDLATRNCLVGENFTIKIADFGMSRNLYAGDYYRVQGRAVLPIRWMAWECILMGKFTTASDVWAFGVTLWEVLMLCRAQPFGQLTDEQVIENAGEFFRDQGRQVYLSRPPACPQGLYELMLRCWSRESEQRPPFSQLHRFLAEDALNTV
Casein kinase I isoform delta, sequence (P48730 whole entry, looked up, canonical isoform): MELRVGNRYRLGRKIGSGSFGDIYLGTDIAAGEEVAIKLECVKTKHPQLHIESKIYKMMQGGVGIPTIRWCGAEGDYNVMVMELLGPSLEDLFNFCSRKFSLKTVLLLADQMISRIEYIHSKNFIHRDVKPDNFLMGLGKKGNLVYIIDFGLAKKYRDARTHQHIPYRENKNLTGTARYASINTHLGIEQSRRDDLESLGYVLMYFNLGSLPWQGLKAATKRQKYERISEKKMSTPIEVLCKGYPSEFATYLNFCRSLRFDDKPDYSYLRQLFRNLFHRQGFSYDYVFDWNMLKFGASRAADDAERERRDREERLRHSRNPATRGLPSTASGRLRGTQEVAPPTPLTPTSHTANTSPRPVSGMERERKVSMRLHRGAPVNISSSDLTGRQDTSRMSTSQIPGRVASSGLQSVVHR
Epidermal growth factor receptor, sequence (P00533 whole entry): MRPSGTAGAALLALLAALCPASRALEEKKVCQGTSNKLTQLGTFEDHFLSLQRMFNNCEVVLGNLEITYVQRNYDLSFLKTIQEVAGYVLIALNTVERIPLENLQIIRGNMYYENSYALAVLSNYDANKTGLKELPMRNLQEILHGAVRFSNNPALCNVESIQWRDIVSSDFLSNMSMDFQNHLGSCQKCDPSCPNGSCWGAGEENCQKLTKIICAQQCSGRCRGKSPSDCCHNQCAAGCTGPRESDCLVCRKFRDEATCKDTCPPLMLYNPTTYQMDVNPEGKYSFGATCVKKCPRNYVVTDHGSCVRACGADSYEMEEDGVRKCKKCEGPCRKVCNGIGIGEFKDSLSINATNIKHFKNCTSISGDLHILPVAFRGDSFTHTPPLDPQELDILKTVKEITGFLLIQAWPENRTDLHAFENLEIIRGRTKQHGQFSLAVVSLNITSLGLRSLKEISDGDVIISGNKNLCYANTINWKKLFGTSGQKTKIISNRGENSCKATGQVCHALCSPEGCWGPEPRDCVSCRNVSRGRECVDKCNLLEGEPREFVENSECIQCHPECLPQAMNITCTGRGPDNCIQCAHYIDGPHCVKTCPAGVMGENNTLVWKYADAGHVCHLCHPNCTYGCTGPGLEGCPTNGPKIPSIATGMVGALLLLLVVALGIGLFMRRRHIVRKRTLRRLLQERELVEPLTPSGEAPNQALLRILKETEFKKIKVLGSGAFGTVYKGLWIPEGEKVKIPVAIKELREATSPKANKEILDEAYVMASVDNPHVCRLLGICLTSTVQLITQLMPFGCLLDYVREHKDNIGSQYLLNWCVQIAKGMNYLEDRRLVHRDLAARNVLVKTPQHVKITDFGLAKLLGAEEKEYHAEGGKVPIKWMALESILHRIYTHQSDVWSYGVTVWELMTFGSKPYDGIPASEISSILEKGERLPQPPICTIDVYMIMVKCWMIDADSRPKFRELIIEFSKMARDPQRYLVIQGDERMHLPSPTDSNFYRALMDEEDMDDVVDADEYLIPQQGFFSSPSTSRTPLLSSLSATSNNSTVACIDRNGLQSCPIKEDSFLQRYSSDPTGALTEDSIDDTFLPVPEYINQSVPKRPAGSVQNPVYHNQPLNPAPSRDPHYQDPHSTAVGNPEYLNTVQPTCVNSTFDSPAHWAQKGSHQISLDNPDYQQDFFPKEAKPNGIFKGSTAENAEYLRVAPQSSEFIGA

Compound: CCN(CC)CCCCNc1ncc2cc(-c3cc(OC)cc(OC)c3)c(NC(=O)NC(C)(C)C)nc2n1
% of control [5]: 100%

Compound: COCC(=O)NC/C=C/c1ccc2ncnc(Nc3ccc(Oc4ccc(C)nc4)c(C)c3)c2c1 [CP-724714]
% of control [6]: 100%

Compound: CNC(=O)Nc1ccc(-c2nc(N3CC4CCC(C3)O4)c3cnn(C4CCC5(CC4)OCCO5)c3n2)cc1
% of control [7]: 66%

Compound: O=C(NOC[C@H](O)CO)c1ccc(F)c(F)c1Nc1ccc(I)cc1F
% of control [8]: 72%

Continued, values first:

% of inhibition [1]: 52.2%
% of inhibition [2]: -29.3%
% of inhibition [3]: 17%
Compound: CC[C@@H]1[C@H](F)C(=O)N[C@@H]1COc1nccc2cc(C(N)=O)c(OC)cc12 [ZIMLOVISERTIB]

IC50 [4]: > 30 µM
Compound: CCC(=O)N1CC[C@H](Nc2ncnc3c2CN(c2cnc(OC)c(C(F)(F)F)c2)CC3)C1 [LENIOLISIB]
